Assay results from US6548549B1, “Acylaminosalicylic acid amides and their uses as pesticides” (Bayer Aktiengesellschaft, priority 1995, dated 2003).

Key:
Botrytis cinerea = test: Botrytis test (beans)/protective; format: in vivo; conditions: protective, 500 ppm active compound, lesion size 3 days after inoculation
Procedure: Botrytis Test (Beans)/Protective Solvent: 4.7 parts by weight of acetone Emulsifier: 0.3 part by weight of alkylaryl polyglycol ether To produce a suitable preparation of active compound, 1 part by weight of active compound is mixed with the stated amounts of solvent and emulsifier, and the concentrate is diluted with water to the desired concentration. To test for protective activity, young plants are sprayed with the preparation of active compound. After the spray coating has dried on, 2 small pieces of agar covered with Botrytis cinerea are placed on each leaf. The inoculated plants are then placed in a darkened humid chamber at 20° C. 3 days after the inoculation, the size of the lesions on the leaves is evaluated.

Sphaerotheca fuliginea = test: Sphaerotheca test (cucumber)/protective; format: in vivo; conditions: protective, 100 ppm active substance, evaluation 10 days after inoculation
Procedure: Sphaerotheca Test (Cucumber)/Protective Solvent: 4.7 parts by weight of acetone Emulsifier: 0.3 part by weight of alkylaryl polyglycol ether To produce a suitable preparation of active compound, 1 part by weight of active compound is mixed with the stated amounts of solvent and emulsifier, and the concentrate is diluted with water to the desired concentration. To test for protective activity, young plants are sprayed with the preparation of active compound. After the spray coating has dried on, the plants are dusted with conidia of the fungus Sphaerotheca fuliginea. The plants are then placed in a greenhouse at 23 to 24° C. and at a relative atmospheric humidity of about 75%. Evaluation is carried out 10 days after the inoculation.

Pyricularia oryzae = format: in vivo; conditions: rice, protective, active compound concentration 0.05%, evaluation 4 days after inoculation
[1] = test system: Pseudocercosporella herpotrichoides; test: Pseudocercosporella herpotrichoides test (wheat)/protective; format: in vivo; conditions: protective, application rate 250 g/ha, evaluation 21 days after inoculation
Procedure: Pseudocercosporella herpotrichoides Test (Wheat)/Protective Solvent: 10 parts by weight of N-methyl-pyrrolidone Emulsifier: 0.6 part by weight of alkylaryl polyglycol ether To produce a suitable preparation of active compound, 1 part by weight of active compound is mixed with the stated amounts of solvent and emulsifier, and the concentrate is diluted with water to the desired concentration. To test for protective activity, young plants are sprayed with the preparation of active compound at the rate of application shown. After the spray coating has dried on, the stem base of the plants is inoculated with spores of Pseudocercosporella herpotrichoides. […] Evaluation is carried out 21 days after the inoculation.

[2] = test system: larvae of the green rice leafhopper (Nephotettix cincticeps); test: Nephotettix test; format: in vivo; conditions: rice seedlings dipped, active compound concentration 0.001%, after 7 days
Procedure: Nephotettix Test Solvent: 7 parts by weight of dimethylformamide Emulsifier: 1 part by weight of alkylaryl polyglycol ether To produce a suitable preparation of active compound, 1 part by weight of active compound is mixed with the stated amount of solvent and the stated amount of emulsifier, and the concentrate is diluted with water to the desired concentration. Rice seedlings (Oryza sativa) are treated by being dipped into the preparation of the active compound of the desired concentration and populated with larvae of the green rice leafhopper (Nephotettix cincticeps) while the seedlings are still moist. After the specified period of time, the destruction in % is determined. 100% means that all the leafhoppers have been killed; 0% means that none of the leafhoppers have been killed.

[3] = test system: mustard beetle larvae (Phaedon cochleariae); test: Phaedon larvae test; format: in vivo; conditions: cabbage leaves dipped, active compound concentration 0.01%, after 7 days
Procedure: (§1) Phaedon Larvae Test Solvent: 7 parts by weight of dimethylformamide Emulsifier: 1 part by weight of alkylaryl polyglycol ether To produce a suitable preparation of active compound, 1 part by weight of active compound is mixed with the stated amount of solvent and the stated amount of emulsifier, and the concentrate is diluted with water to the desired concentration. Cabbage leaves (Brassica oleracea) are treated by being dipped into the preparation of the active compound of the desired concentration and are populated with mustard beetle larvae (Phaedon cochleariae) while the leaves are still moist. After the specified period of time, the destruction in % is determined. 100% means that all the beetle larvae have been killed; 0% means that none of the beetle larvae have been killed.

[4] = test system: caterpillars of the fall armyworm Spodoptera frugiperda; test: Spodoptera test; format: in vivo; conditions: cabbage leaves dipped, concentration 0.1%, after 7 days
Procedure: as §1, with “Spodoptera” for “Phaedon Larvae”, “[…]” for “weight of dimethylformamide”, “caterpillars of the fall armyworm Spodoptera frugiperda” for “mustard beetle larvae (Phaedon cochleariae)”, “activity” for “destruction”, “caterpillars” for “beetle larvae”

Compound `O=CNc1cccc(C(=O)Nc2ccc(-c3ccccc3)cc2)c1O` [Example 2, 3-formamido-2-hydroxy-N-(4-phenylphenyl)-benzamide] has an efficacy (Botrytis cinerea) of 90% and a melting point of 190 °C.
Compound `CC(NC(=O)c1cccc(NC=O)c1O)c1ccc(F)cc1` (stereo not drawn) [Example 3, 3-formamido-2-hydroxy-N-[1-(4-fluorphenyl)-ethyl)-benzamide] has an efficacy (Botrytis cinerea) of 90%.
Work on `O=CNc1cccc(C(=O)Nc2ccc(Oc3ccc(Cl)cc3)c(Cl)c2)c1O` [Example 4] yielded an efficacy (Botrytis cinerea) of 90%.
With `O=CNc1cccc(C(=O)Nc2ccc(Oc3cccc(C(F)(F)F)c3)cc2)c1O` [Example 5] the efficacy (Sphaerotheca fuliginea) was “over 80%”, the efficacy (Pyricularia oryzae) was “over 80%” and the efficacy [1] was “over 80%”. For the same compound, the efficacy (Botrytis cinerea) was 90%.
In the case of `COc1cccc(C(C)NC(=O)c2cccc(NC=O)c2O)c1` (stereo not drawn) [Example 10], the efficacy (Botrytis cinerea) is reported as 90%.
For `CC(NC(=O)c1cccc(NC=O)c1O)c1ccc(Cl)cc1Cl` (stereo not drawn) [Example 15], the efficacy (Botrytis cinerea) was 90%.
Compound `CCc1ccc(C(C)NC(=O)c2cccc(NC=O)c2O)cc1` (stereo not drawn) [Example 16] has an efficacy (Botrytis cinerea) of 90%.
`O=CNc1cccc(C(=O)NCc2ccc(F)cc2)c1O` [Example 35] showed a destruction [2] of 100%.
`O=CNc1cccc(C(=O)NCc2cccc(C(F)(F)F)c2)c1O` [Example 39] showed a destruction [2] of 100%.
`CCc1ccc(-c2ccc(CCNC(=O)c3cccc(NC=O)c3O)cc2)cc1` [Example 47] showed a destruction [3] of 100% and a destruction rate [4] of 85%.
`CC(NC(=O)c1cccc(NC=O)c1O)C1CC=CCC1` (stereo not drawn) [Example 71] showed a destruction [2] of 100%.
With `CC(NC(=O)c1cccc([N+](=O)[O-])c1OCc1ccccc1)c1cccc(C(F)(F)F)c1` (stereo not drawn) [Example V-34] the destruction [3] was 100%.
Compound `O=C(Nc1ccc(-c2ccccc2)cc1)c1cccc([N+](=O)[O-])c1O` [IV-a-1, 3-nitro-2-hydroxy-N-(4-phenyl-phenyl)-benzamide] has a melting point of 152 °C.
